ChEMBL document CHEMBL1201862, “PubChem BioAssay data set” (2004)
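Tested at 5 concentrations; 48 h exposure; 96-well plates; endpoints linearly interpolated, else capped at highest concentration. The concentration for 50% growth inhibition is given as GI50.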 The source made the active and inactive calls. No stated cut-off is given here; in the data, active = GI50 up to about 1.1 µM and inactive = higher.

Key:
Experiment in all cases: NCI anticancer screen, dose series, 48 h
[1] = tested on: 786-0
[2] = tested on: A549
[3] = tested on: ACHN
[4] = tested on: CCRF-CEM
[5] = tested on: COLO 205
[6] = tested on: DU-145
[7] = tested on: EKVX
[8] = tested on: HCC 2998
[9] = tested on: HCT-116
[10] = tested on: HCT-15
[11] = tested on: HL-60
[12] = tested on: HOP-62
[13] = tested on: HOP-92
[14] = tested on: HT-29
[15] = tested on: Hs-578T
[16] = tested on: IGROV-1
[17] = tested on: K562
[18] = tested on: KM12
[19] = tested on: LOX IMVI
[20] = tested on: M14
[21] = tested on: MCF7
[22] = tested on: MDA-MB-231
[23] = tested on: MDA-MB-435
[24] = tested on: MDA-N
[25] = tested on: MOLT-4
[26] = tested on: Malme-3M
[27] = tested on: NCI-H226
[28] = tested on: NCI-H23
[29] = tested on: NCI-H460
[30] = tested on: NCI/ADR-RES
[31] = tested on: OVCAR-3
[32] = tested on: OVCAR-4
[33] = tested on: OVCAR-5
[34] = tested on: OVCAR-8
[35] = tested on: PC-3
[36] = tested on: RPMI-8226
[37] = tested on: SF-268
[38] = tested on: SF-295
[39] = tested on: SF-539
[40] = tested on: SK-MEL-28
[41] = tested on: SK-MEL-2
[42] = tested on: SK-MEL-5
[43] = tested on: SK-OV-3
[44] = tested on: SN12C
[45] = tested on: SNB-75
[46] = tested on: SR
[47] = tested on: SW-620
[48] = tested on: T47D
[49] = tested on: TK-10
[50] = tested on: U-251
[51] = tested on: UACC-257
[52] = tested on: UACC-62
[53] = tested on: UO-31
[54] = tested on: A498
[55] = tested on: CAKI-1
[56] = tested on: NCI-H522
[57] = tested on: RXF 393
[58] = tested on: SNB-19

Compound: O=C1CSC2=NC3=C(CSC/C3=C\c3ccccc3)C(c3ccccc3)N12 (configuration not stated)
- GI50 [1]: > 100 µM (inactive)
- GI50 [2]: 50.6 µM (inactive)
- GI50 [3]: 57.5 µM (inactive)
- GI50 [4]: 33.8 µM (inactive)
- GI50 [5]: > 100 µM (inactive)
- GI50 [6]: > 100 µM (inactive)
- GI50 [7]: > 100 µM (inactive)
- GI50 [8]: > 100 µM (inactive)
- GI50 [9]: 50.2 µM (inactive)
- GI50 [10]: > 100 µM
- GI50 [11]: 32.2 µM (inactive)
- GI50 [12]: > 100 µM (inactive)
- GI50 [13]: 46 µM (inactive)
- GI50 [14]: 95.5 µM (inactive)
- GI50 [15]: > 100 µM (inactive)
- GI50 [16]: > 100 µM (inactive)
- GI50 [17]: 39.4 µM (inactive)
- GI50 [18]: 70.3 µM (inactive)
- GI50 [19]: 44.5 µM (inactive)
- GI50 [20]: 41.5 µM (inactive)
- GI50 [21]: 33.3 µM (inactive)
- GI50 [22]: > 100 µM (inactive)
- GI50 [23]: 65.5 µM (inactive)
- GI50 [24]: 32.6 µM (inactive)
- GI50 [25]: 53.5 µM (inactive)
- GI50 [26]: > 100 µM (inactive)
- GI50 [27]: > 100 µM (inactive)
- GI50 [28]: 62.1 µM (inactive)
- GI50 [29]: 81.3 µM (inactive)
- GI50 [30]: > 100 µM (inactive)
- GI50 [31]: 88.9 µM (inactive)
- GI50 [32]: > 100 µM (inactive)
- GI50 [33]: > 100 µM (inactive)
- GI50 [34]: 86.5 µM (inactive)
- GI50 [35]: 28.1 µM (inactive)
- GI50 [36]: 31.1 µM (inactive)
- GI50 [37]: > 100 µM (inactive)
- GI50 [38]: > 100 µM (inactive)
- GI50 [39]: > 100 µM (inactive)
- GI50 [40]: > 100 µM (inactive)
- GI50 [41]: > 100 µM (inactive)
- GI50 [42]: 52.1 µM (inactive)
- GI50 [43]: > 100 µM (inactive)
- GI50 [44]: 92.9 µM (inactive)
- GI50 [45]: 29.6 µM (inactive)
- GI50 [46]: 65.3 µM (inactive)
- GI50 [47]: 84.9 µM (inactive)
- GI50 [48]: 52.2 µM (inactive)
- GI50 [49]: > 100 µM (inactive)
- GI50 [50]: 39.8 µM (inactive)
- GI50 [51]: > 100 µM (inactive)
- GI50 [52]: > 100 µM (inactive)
- GI50 [53]: 24.9 µM (inactive)

Compound: COc1ccc([I+]c2ccc(OC)cc2)cc1
- GI50 [1]: 50.7 µM (inactive)
- GI50 [54]: > 100 µM (inactive)
- GI50 [2]: 1.87 µM (inactive)
- GI50 [3]: > 100 µM (inactive)
- GI50 [55]: > 100 µM (inactive)
- GI50 [4]: 74.5 µM (inactive)
- GI50 [5]: 60.5 µM (inactive)
- GI50 [6]: 99.5 µM (inactive)
- GI50 [7]: > 75 µM (inactive)
- GI50 [8]: > 100 µM (inactive)
- GI50 [10]: > 22.2 µM
- GI50 [11]: 27 µM (inactive)
- GI50 [12]: 12.1 µM (inactive)
- GI50 [13]: > 100 µM (inactive)
- GI50 [14]: 39 µM (inactive)
- GI50 [15]: > 100 µM (inactive)
- GI50 [16]: > 66.8 µM (inactive)
- GI50 [17]: 21.1 µM (inactive)
- GI50 [18]: 28.9 µM (inactive)
- GI50 [19]: 28.6 µM (inactive)
- GI50 [20]: 54.8 µM (inactive)
- GI50 [21]: 46.7 µM (inactive)
- GI50 [22]: > 100 µM (inactive)
- GI50 [23]: > 56.5 µM (inactive)
- GI50 [25]: > 100 µM (inactive)
- GI50 [26]: 20.2 µM (inactive)
- GI50 [27]: 32.7 µM (inactive)
- GI50 [28]: 13 µM (inactive)
- GI50 [29]: 4.47 µM (inactive)
- GI50 [56]: > 61.1 µM (inactive)
- GI50 [30]: > 100 µM (inactive)
- GI50 [31]: 26.7 µM (inactive)
- GI50 [32]: > 75.2 µM (inactive)
- GI50 [33]: > 100 µM (inactive)
- GI50 [34]: 22.1 µM (inactive)
- GI50 [35]: > 60 µM (inactive)
- GI50 [36]: 44.1 µM (inactive)
- GI50 [57]: > 100 µM (inactive)
- GI50 [37]: > 84.5 µM (inactive)
- GI50 [38]: 30 µM (inactive)
- GI50 [39]: > 78.3 µM (inactive)
- GI50 [40]: 73.6 µM (inactive)
- GI50 [41]: > 100 µM (inactive)
- GI50 [42]: 5.75 µM (inactive)
- GI50 [43]: > 100 µM (inactive)
- GI50 [44]: 40.8 µM (inactive)
- GI50 [58]: 96.8 µM (inactive)
- GI50 [45]: 28.9 µM (inactive)
- GI50 [46]: > 50.5 µM (inactive)
- GI50 [47]: > 91.8 µM (inactive)
- GI50 [48]: > 95.7 µM (inactive)
- GI50 [49]: > 100 µM (inactive)
- GI50 [50]: 34 µM (inactive)
- GI50 [51]: 11.6 µM (inactive)
- GI50 [52]: > 100 µM (inactive)
- GI50 [53]: > 100 µM (inactive)

Compound: C[C@H](CCC(=O)O)[C@H]1CC[C@H]2[C@@H]3CC[C@@H]4C[C@H](O)CC[C@]4(C)[C@H]3CC[C@]12C [LITHOCHOLIC ACID]
- GI50 [54]: > 100 µM (inactive)

Compound: C[C@@H]1O[C@@H](O[C@H]2C[C@@H](O)[C@]3(CO)[C@H]4[C@H](O)C[C@]5(C)[C@@H](C6=CC(=O)OC6)CC[C@]5(O)[C@@H]4CC[C@]3(O)C2)[C@H](O)[C@H](O)[C@H]1O [OUABAIN]
- GI50 [4]: 21.1 µM (inactive)
- GI50 [45]: 0.0162 µM (active)
